Results from US20160166572A1, “BENEFICIAL EFFECTS OF Lp-PLA2 INHIBITORS IN TREATMENT OF DIABETIC RETINOPATHY AND AGE-RELATED MACULAR DEGENERATION” (Rowan University, priority 2014, published 2016).

Key:
porcine retina = experiment: Determination of retinal layer thickness (H&E, ImagePro) in DMHC porcine model; format: in vivo, pig; settings: DMHC pigs, Darapladib 10 mg/kg/d orally, 24 weeks
Description: Briefly, after induction of diabetes by a single injection of Streptozotocin, animals were fed a high cholesterol diet. After a month of DMHC induction and acclimation, animals were randomly segregated to untreated DMHC and Darapladib-treated DMHC groups. Darapladib-treated pigs received 10 mg/kg/d of Darapladib orally. Three of the pigs were spared from DMHC induction and served as age-matched, non-DMHC normal controls. Twenty four weeks after acclimation, animals were euthanized and their brains and eyes were immediately removed. Brains were divided anteroposteriorly into anterior, middle and posterior regions. For each of these brain regions, 2-3 tissue blocks were generated for routine tissue fixation (10% formalin) or freezing and histological processing. The anterior cortical region comprised of anterior ⅔ of frontal lobe and anterior ⅓ of temporal lobe. The middle cortical region contained mid ⅓ of temporal lobe and anterior ½ of the parietal lobe. The posterior cortex included the posterior ½ of the parietal lobe, posterior ⅓ of the temporal lobe and the occipital lobe. Eyes were dissected longitudinally to sever the retina at the optic nerve. The sections were fixed in 10% formalin and embedded as flattened disc in paraffin. The tissue samples were processed using routine histology techniques. Standard Hematoxylin & Eosin (H&E) staining (FIG. 1) was carried out in retinal sections. The remarkably uniform and laminated histological architecture of the retina lends itself well to direct measurements of the thickness of the various layers as shown in FIG. 1. Using the image analysis software, ImagePro 7.0 (Media Cybernetics, Silver Spring, Md.), the thickness of all retinal layers were measured. The thickness of each retinal layer was measured in three separate retinal sections obtained from each animal. In each section, measurements were made at two randomly selected locations in the middle part of retina. Results were averaged for each pig. The identity of specimens was blinded and two independent investigators carried out this analysis. In addition, the percentage contribution of each retinal layer to the total thickness of the retina was calculated and compared among the different treatment groups (FIG. 2). The thickness of the individual layers of the retina was measured in transverse sections stained with Hematoxylin and Eosin using the image analysis software, ImagePro 7.0.

claudin5 = experiment: Claudin5 protein expression in BVECs of cerebral cortex (IHC, MATLAB), DMHC pigs; format: in vivo, pig; settings: Darapladib 10 mg/kg/d orally, 24 weeks
Description: Briefly, after induction of diabetes by a single injection of Streptozotocin, animals were fed a high cholesterol diet. After a month of DMHC induction and acclimation, animals were randomly segregated to untreated DMHC and Darapladib-treated DMHC groups. Darapladib-treated pigs received 10 mg/kg/d of Darapladib orally. Three of the pigs were spared from DMHC induction and served as age-matched, non-DMHC normal controls. Twenty four weeks after acclimation, animals were euthanized and their brains and eyes were immediately removed. Brains were divided anteroposteriorly into anterior, middle and posterior regions. For each of these brain regions, 2-3 tissue blocks were generated for routine tissue fixation (10% formalin) or freezing and histological processing. The anterior cortical region comprised of anterior 2⁄3 of frontal lobe and anterior 1⁄3 of temporal lobe. The middle cortical region contained mid 1⁄3 of temporal lobe and anterior 1⁄2 of the parietal lobe. The posterior cortex included the posterior 1⁄2 of the parietal lobe, posterior 1⁄3 of the temporal lobe and the occipital lobe. Eyes were dissected longitudinally to sever the retina at the optic nerve. The sections were fixed in 10% formalin and embedded as flattened disc in paraffin. The tissue samples were processed using routine histology techniques. Standard Hematoxylin & Eosin (H&E) staining (FIG. 1) was carried out in retinal sections. Localization of claudin5, occludin and IgG in the cerebral cortex and retina was carried out using immunohistochemistry (IHC) as described previously. Briefly, tissue sections were deparaffinized in xylene and rehydrated in decreasing concentrations of ethanol. The antigenicity of these tissues was enhanced by microwaving in citrate buffer. Sections were treated with 3% H2O2 for 10 minutes to quench endogenous peroxidase activity. Tissues were subsequently treated with their appropriate blocking serum for 30 minutes at room temperature and then probed with anti-claudin5 (Invitrogen, Cat #35-2500, dilution 1:150) or anti-occludin (Invitrogen, Cat #71-1500, dilution 1:800) antibodies for 1 hour at room temperature. Extravasated IgG was detected using biotinylated anti-swine IgG antibody (Vector laboratories, Inc., Catalogue # BA-9020; dilution 1:100). The use of occludin antibody required pre-treatment with a protease (Sigma, Catalogue P-5147; 1.5 mg/ml) for 10 minutes at 37° C. At the end of primary antibody step, all tissue sections were thoroughly rinsed in PBS and then probed with biotin-labeled secondary antibodies [anti-mouse IgG (Vector laboratories, Catalogue # PK-6102; Dilution 1:100) for claudin5 and anti-rabbit IgG (Vector laboratories, Inc., Catalogue # PK-6101; Dilution 1:100) for occludin] for 30 minutes at room temperature. Sections were then rinsed in PBS, treated with avidin-peroxidase complex (Vectastain ABC Elite kit, Vector Laboratories, Inc., Catalogue PK-6100), washed with PBS and visualized with 3-3-diaminobenzidine-4-HCL (DAB)/H2O2 (Imm-PACT-DAB) (Dako, Code K3468). […] Slides were examined and photographed with a Nikon FXA microscope, and digital images were recorded using a Nikon DXM1200F digital camera and analyzed using MATLAB (MathWorks, Mass., USA) and NIS-elements software (Nikon, Melville, N.Y.). […] Claudin5 and occludin protein expression in pig cerebral cortex was evaluated semi-quantitatively using IHC by taking images at five random locations as described previously. Images were analyzed using MATLAB (MathWorks, Mass., USA). […]

BBB = BBB permeability, IgG binding and Aβ42 deposition in cerebral cortex, animal model of DM and hypercholesterolemia; format: in vivo

CCN(CC)CCN(Cc1ccc(-c2ccc(C(F)(F)F)cc2)cc1)C(=O)Cn1c(SCc2ccc(F)cc2)nc(=O)c2c1CCC2 [Darapladib]
thickness of ganglion cell layer (GCL) (porcine retina; FIG. 2B): comparable to controls
thickness of outer nuclear layer (ONL) (porcine retina; FIG. 2C): comparable to controls
thickness of inner-segment (IS)/outer-segment (OS) layer (porcine retina; FIG. 2D): comparable to controls
thickness of inner plexiform layer (IPL) (porcine retina; FIG. 2E): lowered IPL thickness in DMHC animals to near control levels
thickness of inner nuclear layer (INL) (porcine retina; FIG. 2F): comparable thickness across all treatment groups
claudin5 protein expression, anterior cortex, versus DMHC group (claudin5; FIG. 7A): reduction in claudin5 expression compared to the DMHC group, but this difference did not reach statistical significance
claudin5 protein expression, anterior cortex, versus controls (claudin5; FIG. 7A): significantly higher than in controls
claudin5 protein expression, middle cortex, versus DMHC only (claudin5; FIG. 7B): approached statistical significance
claudin5 protein expression, middle cortex, versus controls (claudin5; FIG. 7B): reduced expression of claudin5 to levels not significantly different from controls
claudin5 protein expression, posterior cortex (claudin5; rank among treatment groups, FIG. 7C): highest expression of claudin5
Aβ42 deposition in cortical pyramidal neurons (BBB): reverse
BBB permeability (BBB): reverse
IgG binding in cortical pyramidal neurons (BBB): reverse
